# Assay results taken from PMC9402538, “Rational design of a sensitivity-enhanced tracer for discovering efficient APC–Asef inhibitors” (Nature Communications, 2022).
# “And” between values parts separate entries of the source, which are not always exact repeats. Equal values may be shown once. Read-outs that look alike come from different tables or passages of the source. Where a SMILES comes first, the peptide text is derived from it. The star is where a group is joined. Picolinoyl = O=C(c1ccccn1)*
# What was measured:
# LS-174T cells = test: DBZ-induced goblet cell differentiation of LS-174T cells (RT-PCR); format: cell-based; details: 1 μM DBZ
# Procedure: . Notch inhibition by dibenzazepine (DBZ) allows colorectal stem cells to differentiate into goblet cells, and the DBZ-induced goblet cell differentiation of LS-174T cells is a well-established intestinal differentiation model. […].
# Total RNA was extracted using TRIzol reagent (Takara Bio Inc., Japan) following the manufacturer’s instructions. Total RNA (1 μg) was reverse-transcribed into cDNA using the PrimeScript RT Kit (Takara Bio Inc., Japan). Quantitative real-time reverse transcription-PCR was performed using a SYBR Green kit (Vazyme, China). β-Actin mRNA was employed as a reference gene for expression normalization. The qPCR primer sequences are listed in Supplementary Table 8. […]
# Supplementary Fig. 17. Effect of […] on apoptosis and cell differentiation. a,b) Flow cytometry apoptosis analysis of SW480 (a) and HIEC-6 (b) cells treated with 25 μM MAIT -516 for 48 h, the gating strategy is shown for control sample . c) RT-PCR analysis of genes involved in intestinal cell differentiation ( MUC2, ATOH1, HES1, SPDEF and TFF3) in LS-174T cells. LS-174T cells were treated […]
# mean ± SD (n = 3 independent experiments). p values were calculated by one-way ANOVA with Tukey’s multiple comparisons test.
# Source data are provided as a Source Data file.
# (1 picture or pasted object on this page, not shown here)
# APC (303–739) = molecular target: T1, APC (303–739) (Homo sapiens, UniProt P25054); test: FP competitive assay using tracer 7; format: binding; details: for IC50: Table 3 source data; for FP(mp): Tracer 7, replicate wells
# T1 sequence (P25054 303-739): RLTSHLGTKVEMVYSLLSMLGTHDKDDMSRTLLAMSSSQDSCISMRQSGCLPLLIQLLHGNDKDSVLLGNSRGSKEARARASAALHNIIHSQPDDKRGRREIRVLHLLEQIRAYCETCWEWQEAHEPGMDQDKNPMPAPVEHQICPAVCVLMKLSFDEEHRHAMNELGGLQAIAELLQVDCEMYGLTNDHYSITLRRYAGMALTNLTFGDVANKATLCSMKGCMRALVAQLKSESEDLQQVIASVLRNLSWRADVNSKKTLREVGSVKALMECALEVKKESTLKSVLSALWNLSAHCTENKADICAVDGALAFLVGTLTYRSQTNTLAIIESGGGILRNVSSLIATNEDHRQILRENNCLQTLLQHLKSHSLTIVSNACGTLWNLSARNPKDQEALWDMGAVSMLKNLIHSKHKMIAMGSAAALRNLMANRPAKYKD
# Method in brief: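 Peptide dilutions were first incubated 1 h at room temperature with APC (303–739) in HEPES pH 7.5 buffer containing 300 mM NaCl, EDTA and DTT. Added FITC tracer 7 (400 nM stock) displaced over a further 1.5 h before polarization reading. IC50 values came from nonlinear regression fits of triplicate data.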
# APC = molecular target: T2, APC (Homo sapiens, UniProt P25054); test: FP competitive assay using tracer 1; format: binding; details: for FP(mp): Tracer 1, triplicate raw readings
# T2 sequence (P25054 303-739): T1 sequence (P25054 303-739)
# Method in brief: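 A fluorescence polarization competition assay measured inhibition of the human APC–Asef interaction using FITC-labeled tracer 1 and the APC (303–739) protein. The protein was diluted in FP buffer (50 mM HEPES, pH 7.5, 300 mM NaCl, 1 mM EDTA, 1 mM DTT). Plates were incubated 1.5 h at room temperature and read on a Synergy neo microplate reader. Each plate carried blank, 100% inhibition (free tracer) and 0% inhibition (protein/tracer complex) controls. Triplicate data gave IC50 values by nonlinear regression in GraphPad Prism 7.0.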
smiles,measurement,setting,value
"C[C@H](NC(=O)Cc1cc(F)cc(F)c1)C(=O)N[C@@H]1C(=O)N(C)c2ccccc2-c2ccccc21 [DBZ, dibenzazepine]",mRNA level of NOTCH target gene HES1,LS-174T cells,significantly suppressed
same,"mRNA levels of goblet cell markers (MUC2, TFF3, ATOH1, SPDEF)",LS-174T cells,increasing the mRNA levels
CC(C)C[C@H](NC(=O)[C@H](CO)NC(=O)[C@H](CCC(=O)O)NC(=O)CNC(=O)[C@H](C)NC(=O)c1ccccn1)C(=O)N[C@@H](Cc1ccc(O)cc1)C(=O)N[C@@H](CCC(=O)O)C(N)=O [MAI-512] (Picolinoyl-AGESLYE-NH2),IC50,"APC (303–739); Repeat 1, read-out: IC50(μM) Repeat 1",1.04 µM
same,IC50,"APC (303–739); Repeat 2, read-out: IC50(μM) Repeat 2",0.958 µM
same,IC50,"APC (303–739); Repeat 3, read-out: IC50(μM) Repeat 3",0.93 µM
same,FP(mp),APC (303–739); Conc. 0.0061 μM,305 mp and 310 mp and 308 mp
same,FP(mp),APC (303–739); Conc. 0.0122 μM,307 mp and 310 mp (2×)
same,FP(mp),APC (303–739); Conc. 0.0244 μM,298 mp and 303 mp and 300 mp
same,FP(mp),APC (303–739); Conc. 0.05 μM,293 mp and 300 mp and 297 mp
same,FP(mp),APC (303–739); Conc. 0.10 μM,290 mp and 286 mp and 291 mp
same,FP(mp),APC (303–739); Conc. 0.20 μM,266 mp and 274 mp and 271 mp
same,FP(mp),APC (303–739); Conc. 0.39 μM,242 mp and 240 mp and 236 mp
same,FP(mp),APC (303–739); Conc. 0.78 μM,199 mp (2×) and 200 mp
same,FP(mp),APC (303–739); Conc. 1.56 μM,160 mp and 157 mp and 158 mp
same,FP(mp),APC (303–739); Conc. 3.13 μM,119 mp (2×) and 121 mp
same,FP(mp),APC (303–739); Conc. 6.25 μM,94 mp and 89 mp and 91 mp
same,FP(mp),APC (303–739); Conc. 12.50 μM,80 mp and 77 mp and 78 mp
same,FP(mp),APC (303–739); Conc. 25.00 μM,69 mp and 66 mp and 65 mp
same,FP(mp),APC (303–739); Conc. 50.00 μM,61 mp and 57 mp and 60 mp
same,IC50,"APC (303–739); mean of 3 repeats, read-out: IC50(μM) mean",0.976 µM
same,IC50,"APC; Supplementary Table 4, read-out: IC50, Tracer 1",750 ± 180 nM
same,FP(mp),APC; Conc. 0.05 μM,172 mp and 170 mp
same,FP(mp),APC; Conc. 0.10 μM,168 mp
same,FP(mp),APC; Conc. 0.20 μM,166 mp and 163 mp and 165 mp
same,FP(mp),APC; Conc. 0.39 μM,156 mp and 155 mp and 153 mp
same,FP(mp),APC; Conc. 0.78 μM,126 mp and 125 mp and 122 mp
same,FP(mp),APC; Conc. 1.56 μM,80 mp and 79 mp and 78 mp
same,FP(mp),APC; Conc. 3.13 μM,59 mp and 55 mp
same,FP(mp),APC; Conc. 6.25 μM,52 mp and 50 mp
same,FP(mp),APC; Conc. 12.50 μM,53 mp and 48 mp and 50 mp
same,FP(mp),APC; Conc. 25.00 μM,51 mp and 48 mp and 47 mp
same,FP(mp),APC; Conc. 50.00 μM,51 mp and 48 mp and 47 mp
same,FP(mp),APC; Conc. 100.00 μM,51 mp and 53 mp
same,FP(mp),APC; Conc. 200.00 μM,51 mp and 47 mp and 50 mp
same,FP(mp),APC; Conc. 400.00 μM,53 mp and 50 mp and 47 mp
